Data reported in ChEMBL document CHEMBL3988442, “University of Dundee, Small-Polar-MMV Screening Library” (2021).
Several values for one entry are separate records, joined by “and”; a condition that tells them apart may be missing. Equal values may be shown once.

Experiments:
[1] = biological target: AMP-activated protein kinase, AMPK; assay: AMP-dependent Kinase enzyme assay. An in vitro enzyme assay that detects ADP turnover that is directly proportional to AMPK activity. This uses naive AMPK that is activated during the assay with MK-8722; format: functional, Homo sapiens
Histidine--tRNA ligase = biological target: T1, Histidine--tRNA ligase (Leishmania infantum, UniProt A4I591); assay: Leishmania infantum Histidine tRNA synthetase (LdHisRS); format: functional
T1 sequence (A4I591 whole entry): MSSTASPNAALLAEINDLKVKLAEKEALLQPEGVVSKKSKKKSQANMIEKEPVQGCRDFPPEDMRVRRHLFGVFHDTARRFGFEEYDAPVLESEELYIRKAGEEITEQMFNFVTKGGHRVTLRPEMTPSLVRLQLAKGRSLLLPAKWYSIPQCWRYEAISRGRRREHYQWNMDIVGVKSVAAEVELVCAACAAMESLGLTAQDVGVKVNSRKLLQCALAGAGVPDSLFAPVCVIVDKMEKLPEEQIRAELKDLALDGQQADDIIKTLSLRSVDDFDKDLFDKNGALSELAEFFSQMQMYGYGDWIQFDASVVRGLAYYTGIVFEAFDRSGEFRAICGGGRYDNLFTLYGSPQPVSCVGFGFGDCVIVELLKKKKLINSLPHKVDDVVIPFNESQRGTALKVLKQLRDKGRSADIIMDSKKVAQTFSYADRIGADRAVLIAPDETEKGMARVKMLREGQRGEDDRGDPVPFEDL

[2] = biological target: Polyketide synthase Pks13 (Mycobacterium tuberculosis (strain ATCC 25618 / H37Rv), UniProt I6X8D2); assay: Mycobacterium tuberculosis Polyketide synthase 13 Thioesterase (PKS13); format: functional
Schistosoma mansoni = assay: High throughput screening of compounds against Schistosoma mansoni motility; format: functional; parameters: dose or concentration left out as unconfirmed
ClpP1P2 = ClpP1P2 (Mycobacterium tuberculosis (strain ATCC 25618 / H37Rv), UniProt P9WPC3+P9WPC5); assay: in vitro assay to detect presence of AMC directly proportional to the activity of ClpP1P2. GHDDI collaboration.; format: functional
[3] = biological target: T2, Coenzyme A biosynthesis bifunctional protein CoaBC (Mycobacterium tuberculosis (strain ATCC 25618 / H37Rv), UniProt P9WNZ1); assay: Biomol Green assay for MtCoaBC inhibitor, OD650 read; format: functional
T2 sequence (P9WNZ1 whole entry): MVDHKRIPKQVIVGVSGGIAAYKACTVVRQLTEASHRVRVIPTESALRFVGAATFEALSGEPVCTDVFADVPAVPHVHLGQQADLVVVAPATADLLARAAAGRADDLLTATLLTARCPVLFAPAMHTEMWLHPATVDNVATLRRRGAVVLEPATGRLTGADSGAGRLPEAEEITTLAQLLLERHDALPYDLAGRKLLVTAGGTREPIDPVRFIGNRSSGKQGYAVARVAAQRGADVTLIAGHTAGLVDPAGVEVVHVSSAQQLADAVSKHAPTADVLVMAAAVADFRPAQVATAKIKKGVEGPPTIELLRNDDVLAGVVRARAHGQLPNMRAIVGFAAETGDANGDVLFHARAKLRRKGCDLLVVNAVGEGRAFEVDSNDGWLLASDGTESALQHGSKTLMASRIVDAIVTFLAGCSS

Plasmodium falciparum = assay: Calibr Malaria Delayed Death Assay SOP; format: functional, organism-based; settings: for IC50: Plasmodium falciparum
Leishmania donovani = assay: Leishmania intramacrophage assay; format: functional, organism-based; settings: Leishmania donovani

Row | Compound | pIC50 [1] | further results
1 | Cc1ccc(NC(=O)c2cc(S(=O)(=O)N3CCCCC3)c[nH]2)cc1F | < 4 | 
2 | CN(C)c1nc2sc(C(=O)N3CCN(C(=O)OC(C)(C)C)CC3)cc2s1 | < 4 | 
3 | c1cncc(-c2ccc3c(c2)C2(CCNCC2)CC3)c1 | < 4 | 
4 | c1cc(-c2ccc3c(c2)CCC32CCNCC2)ccn1 | < 4 | IC50 (Histidine--tRNA ligase): > 100 µM
5 | c1cc(-c2ccc3c(c2)C2(CCNCC2)CC3)ccn1 | < 4 | 
6 | CCn1nc(C)c2ccn(CC(=O)NC3CCCC3)c(=O)c21 | < 4 | 
7 | CC1(C)Cc2ccccc2-c2nc(NCCO)[nH]c(=O)c21 | 4.722 and 4.636 and 4.548 and 4.621 | IC50 [2]: 16.8 µM and 19.4 µM
8 | O=C(NCC1CC1)C1CN(C(=O)c2cccc(Cl)c2)CC12CCOCC2 (stereo not given) | < 4 | 
9 | CO[C@@H]1CC[C@H]2[C@H]1OCCN2C(=O)c1ccc(C)o1 | < 4 | 
10 | Cc1ccsc1C(=O)N1CC(C(=O)NCC2CC2)C2(CCOCC2)C1 (stereo not given) | < 4 | 
11 | Cc1ccsc1C(=O)N1CC(C(=O)N2CCOCC2)C2(CCOCC2)C1 (stereo not given) | < 4 | 
12 | CCNC(=O)c1nnc2ccc(N3CCOCC3)cc2n1 | < 4 | 
13 | O=C(NCc1ccccc1)c1nnc2ccc(N3CCOCC3)cc2n1 | < 4 | IC50 [2]: 16 µM and 24.5 µM
14 | CC(C)c1cc(C(=O)NCCc2nc(-c3cccnc3)n[nH]2)[nH]n1 | 4.471 and 4.569 and 4.528 and 4.581 | 
15 | Cc1cc(-c2cnc(NC3CCCC3)nc2-c2ccco2)on1 | 4.667 and < 4.31 | 
16 | Cc1cc(-c2cnc(NC3CC3)nc2-c2ccco2)on1 | < 4 and 4.22 | 
17 | Cc1cc(-c2cnc(NC3CC3)nc2-c2ccoc2C)on1 | < 4 | 
18 | Cc1cc(-c2cnc(NC3CC3)nc2-c2ccoc2)on1 | < 4 | 
19 | Cc1occc1-c1nc(NC2CCCC2)ncc1-c1ccccn1 | < 4 | 
20 | Cc1cc(-c2cnc(NC3CCCC3)nc2-c2ccoc2)on1 | < 4 | 
21 | CCn1cc(NC(=O)NCCN2CCCCCC2=O)cn1 | < 4 | 
22 | CC(C)(C)NC(=O)CNc1ncccn1 | < 4 | 
23 | CCCS(=O)(=O)N1CCN(CCCO)CC1 | < 4 | 
24 | CC(C)COc1cncc(N2CCCN(c3ncccn3)CC2)n1 | < 4 | 
25 | O=C1CN(C(=O)c2cc3ccc(Br)cc3[nH]2)CCN1 | < 4 | 

Row | Compound | pIC50 [1] | further results
26 | CN(C)C(=O)Cc1nc(CN2CCCCC2Cn2cccn2)cs1 (stereo not given) | < 4 | 
27 | CCS(=O)(=O)CC(=O)NC(c1ccc(F)cc1)C1CCCC1 (stereo not given) | < 4 | 
28 | CCc1csc(C2CCCN(C(=O)c3cnn(CC)c3)C2)n1 (stereo not given) | < 4 | 
29 | Cc1nn(C)c(N2CCOCC2)c1CNC(C)c1ccco1 (stereo not given) | < 4 | Percent Effect (Schistosoma mansoni): -29.3%
30 | CC(CN1CCN(C)CC1)NC(=O)c1cc(Cl)c2c(c1)OCO2 (stereo not given) | < 4 | Percent Effect (Schistosoma mansoni): -52.41%
31 | CCc1nnc2n1CCN(C(=O)c1ccc3nc(C)c(C)nc3c1)C2 | < 4 | Percent Effect (Schistosoma mansoni): -15.27%
32 | CC(C)NC(=O)N1CC[C@@H]2CN(Cc3ccccc3)S(=O)(=O)[C@@H]2CC1 | < 4 | 
33 | C[C@H]1C[C@@H]2CCN(Cc3ccccn3)C[C@H]2O1 | < 4 | 
34 | CNc1nc(C(=O)N2CCCC(COc3ccc(F)cc3)C2)cs1 (stereo not given) | < 4 | 
35 | COc1cc(-c2cccc3c2OC(CN)C3)ccc1O (stereo not given) | 4.656 and 4.577 | 
36 | NCC1Cc2cccc(-c3ccc(O)c(F)c3)c2O1 (stereo not given) | 4.898 and 4.913 | 
37 | Cn1cnc(S(=O)(=O)N2C[C@@H]3CC[C@H](C2)N(Cc2ccccn2)C3)c1 | < 4 | 
38 | CN(C)S(=O)(=O)NC1CCCc2c1cnn2-c1ccc(C(C)(C)C)cc1 (stereo not given) | < 4 | 
39 | CN1CCC(c2n[nH]c(=O)n2-c2cccc(Cl)c2)CC1 | < 4 | 
40 | COc1ccc(CC2(CO)CCN(c3cc(C#N)ccn3)CC2)cc1 | < 4 | IC50 (ClpP1P2): > 100 µM
41 | O=C1CC2(CCN(Cc3ccc(-c4ccccc4)s3)C2)C(=O)N1 (stereo not given) | < 4 | 
42 | Cc1nc(N)nc(C)c1CC(=O)N1CCC2(CC1)OCCCC2O (stereo not given) | < 4 | IC50 [3]: > 30.2 µM
43 | Cn1ncc2c(NC3CCC3)nc(-c3ccncc3)nc21 | < 4 | 
44 | Cc1nc(N2CCN(C)CC2)ncc1C(=O)N1CCC(O)(CO)CC1 | < 4 | 
45 | CCc1cc(NCCc2ccc(O)cc2)n2nccc2n1 | 4.438 and 4.726 | Percent Effect (Schistosoma mansoni): -42.86%
46 | COc1ccccc1OCc1cc(C(=O)N2CC(O)C2)n[nH]1 | < 4 | Percent Effect (Schistosoma mansoni): -18.55%
47 | CC(C)c1cc(NC(=O)c2ccc([S+]([O-])C(C)C)cc2)[nH]n1 (stereo not given) | 5.533 and 5.17 | 
48 | CC(C)c1cc(NC(=O)c2ccncc2)[nH]n1 | 4.474 and 4.692 | 
49 | CC(C)c1cc(NC(=O)c2cccnc2)[nH]n1 | 4.473 and 4.751 | 
50 | Cc1ccnc(NC(=O)c2[nH]nc(C(C)C)c2Br)c1 | < 4 | IC50 [3]: > 30.2 µM; pIC50 (Plasmodium falciparum): 6.433; IC50 (Plasmodium falciparum): 0.23 µM

Row | Compound | pIC50 [1] | further results
51 | CC(C)c1n[nH]c(C(=O)NC(C)c2ccncc2)c1Br (stereo not given) | < 4 | IC50 [3]: > 30.2 µM
52 | CC(C)c1n[nH]c(C(=O)Nc2ccccn2)c1Br | < 4 | pIC50 (Plasmodium falciparum): 6.515; IC50 (Plasmodium falciparum): 0.24 µM
53 | Cc1cccc(NC(=O)c2[nH]nc(C(C)C)c2Br)n1 | < 4 | IC50 [2]: > 100 µM
54 | CCOc1cc(C)nc(N2CCN(C(=O)CC)CC2)n1 | < 4 | 
55 | Cc1cnn(CC2CN(Cc3nnc(-c4occc4C)o3)CCO2)c1 (stereo not given) | < 4 | 
56 | Cc1cnn(CC2CN(Cc3nnc(C4CC4)o3)CCO2)c1 (stereo not given) | < 4 | 
57 | CNC(=O)c1cccc(NC(=O)Cn2nc(-c3cccs3)oc2=O)c1 | < 4 | 
58 | O=C(CN1CC(n2cccn2)C1)NCCc1c[nH]c2ccccc12 | < 4 | 
59 | CC1COCCN1Cc1nc(-c2cccs2)no1 (stereo not given) | < 4 | 
60 | Cc1cccc(-c2nc(CN3CCc4cnc(C)nc4C3)no2)c1 | < 4 | 
61 | Cc1nc(C)n(CC2CCCN(c3ncnc4[nH]ccc34)C2)n1 (stereo not given) | 4.827 [middle of 4 runs] | 
62 | COc1cc(/C=C/c2ncc(C(=O)O)s2)cc(Cl)c1O | 4.507 and 4.461 | IC50 [3]: > 50.1 µM and > 30.2 µM (2×) and 45.3 µM; IC50 [2]: 23.7 µM and 18.7 µM
63 | CCc1cc(C)c(C(=O)N2CCCC2CC(=O)c2cnn(C)c2)o1 (stereo not given) | < 4 | 
64 | CCOc1cccc2c1OCC(C(=O)NS(=O)(=O)c1ccc(Cl)cc1)=C2 | < 4 | 
65 | CC(C)OCCCNC(=O)c1ccc(-c2ccco2)[nH]c1=O | < 4 | 
66 | CCOCC(O)CN1CCN(C(=O)C2CC2)CC1 (stereo not given) | < 4 | 
67 | COc1cc(C(=O)N2CCCC(CNS(C)(=O)=O)C2)cc(OC)c1C (stereo not given) | < 4 | 
68 | O=C(NCCNc1ccc(C(F)(F)F)cn1)c1cncc(Br)c1 | 4.385 and < 4 | 
69 | COc1cc(CNC2CCCc3c2cnn3C)cc(OC)c1.Cl (stereo not given) | < 4 | 
70 | Cl.Cl.c1ccc(OC[C@@H]2CCC[C@@]23CNCCO3)nc1 | < 4 | 
71 | Cl.Cl.c1cc(COC[C@@H]2CCC[C@@]23CNCCO3)ccn1 | < 4 | 
72 | Cl.Cl.c1cncc(OC[C@@H]2CCC[C@@]23CNCCO3)c1 | < 4 | 
73 | Cc1ccc2c(n1)N(C)CCN(C(=O)NC1CC1)C2.O=C(O)C(F)(F)F | < 4 | 
74 | CN(C)S(=O)(=O)N1C[C@H](Oc2cccnc2)[C@H]2OCCC[C@H]21.O=C(O)C(F)(F)F | < 4 | 
75 | FC1(F)CCN(Cc2ccccn2)CC12CCN(c1cccnc1)C2.O=C(O)C(F)(F)F.O=C(O)C(F)(F)F.O=C(O)C(F)(F)F (stereo not given) | < 4 | IC50 (Leishmania donovani): > 50.1 µM
